Assay results published in patent US10344035B2, “Salt of quinolone compound, polymorphs thereof, preparation method therefor, composition, and applications” (SHANGHAI PHARMACEUTICALS HOLDING CO., LTD., priority 2015, dated 2019).
Values joined by “and” are separate entries in the source; they are usually repeats but may differ in a detail not shown here. Equal entries are not always repeated.

Tests used:
[1] = Body weight change of tumor-bearing mice in LU2503 model; assay type: in vivo, BALB/c nude mice; details: QD*21, 21th day
Excerpt: Tumor tissue was harvested from HuPrime® lung tumor xenograft model LU2503 (R11P6) tumor-bearing mice and cut into 2 to 3 mm diameter tumor blocks subcutaneously inoculated at the right anterior scapular of BALB/c nude mice. When the mean tumor volume reached approximately 139 mm^3, mice were randomly divided to […] based on tumor volume, 8 mice in each group, 4 mice per cage. The day of grouping was defined as day 0. Dosing started on day 0 and ended on day 20. The experiment ended on the 21st day. The experiment was divided into groups of crystal form A of SPH1772 ditartrate (0.3 mg/kg, 3 mg/kg and 30 mg/kg), positive control INC280 (30 mg/kg), positive control Crizotinib (30 mg/kg) and vehicle group, 8 mice in each group, intragastric administration once a day, lasting 21 days.

in vivo = details: SD, rat, in vivo, po, 20 umol/kg
Experimental: All stock solutions of the test compound were sonicated and heated to become clarified and formulated to a 25 mM solution with DMSO.
All samples were dosed at 20 μmol/kg.
The blood sample was centrifuged at 8000 rpm for 5 min, the plasma was collected in a centrifuge tube and stored at −20° C. for use.
Treatment of the plasma sample: the proteins in 50 μL plasma sample were precipitated with 200 μL acetonitrile containing internal standard (Propranolol (PRO), 2.5 ng/mL). Vortexed for 10 min, centrifuged at 6000 g for 10 min, the supernatant was taken and 5-fold diluted with the mobile phase, and the supernatant was injected into a 96-well plate for analysis.
flow rate: 0.3 mL/min; injection volume: 2 μL; column temperature 45° C. The gradient elution procedure was: […]
The ion source was an electrospray ionization source (Turbo Ionspray, ESI); the electrospray voltage was 5500V; the temperature was 500° C.; pressure of ion source gas 1 (N2) was 50 psi; pressure of ion source gas 2 (N2) was 50 psi; pressure of curtain gas (N2) 20 psi; pressure of collision gas (CAD) was Medium; scan time was 100 ms; positive ion mode detection; scan mode was multiple reaction monitoring (MRM), ion reaction and collision energy (CE) for quantitative analysis, declustering potential (DP) are shown in the following table: […]

[2] = tested on: human hepatoma MHCC97H cell line; test: Anti-tumor effect in MHCC97H xenograft model; assay type: in vivo, BALB/c nude mice; details: for relative tumor volume (x ± S) / tumor volume (x ± S) / T/C / TGI (relative tumor inhibition rate): 25th day after dosing; for TGI (relative tumor inhibition rate): from relative tumor volume; for Tumor weight (x ± s) / TGI (tumor weight): 26th day after dosing; for TGI (tumor weight): from tumor weight
Experimental: BALB/c nude mice were subcutaneously inoculated with MHCC97H cells to develop human hepatocellular carcinoma subcutaneously transplanted tumor model. The experiment was divided into groups including crystal form A of SPH1772 ditartrate (0.05 mg/kg, 0.5 mg/kg and 5 mg/kg), positive control INC280 hydrochloride (5 mg/kg), and Vehicle control group, 10 mice in each group, intragastric administration once a day, lasting 21 days. The efficacy was according to the relative tumor inhibition rate (TGI) and tumor growth delay time, the safety was evaluated according to animal weight and death.
BALB/c nude mice, female, 7 to 9 weeks old (the age when mice were inoculated with tumor cells), weight 19.5 to 23.9 g, 75 animals. BALB/c nude mice were purchased from Shanghai Lingchang Biotechnology Co., Ltd., animal certificate number: 2013001816956. Rearing environment: SPF level.
MHCC97H (Zhongshan Hospital subsidiary to Fudan University) was cultured in DMEM containing 10% fetal bovine serum. MHCC97H cells were collected during exponential growth phase, the cells in PBS was re-suspended to a suitable concentration for subcutaneous tumor inoculation in mice.
0.2 mL 1×10^7 MHCC97H cells re-suspended in PBS and Matrigel (1:1) was subcutaneously inoculated to the right side of 75 mice. When the mean tumor volume reached 157 mm^3, mice were randomly grouped based on tumor volume. The formula for calculating the tumor volume was that long diameter×short diameter^2/2.
Relative tumor inhibition rate TGI (%): TGI=1−T/C (%). T/C % is the relative tumor proliferation rate, which is the percentage of the relative tumor volume or tumor weight in the treatment group to that of the control group at a certain time. T and C are respectively the relative tumor volume (RTV) or tumor weight (TW) of the treatment group and control group at a certain time.
The formula was as follows: T/C %=TRTV/CRTV*100% (TRTV: mean RTV in the treatment group; CRTV: mean RTV in the control group; RTV=Vt/V0, V0 was the tumor volume of the animal when grouped, and Vt was the tumor volume of the animal after treatment). Or T/C %=TTW/CTW×100% (TTW: mean tumor weight in the treatment group at the end of the experiment; CTW: mean tumor weight in the control group at the end of experiment).
1.5 h and 24 h after the last dose, blood and tumor were collected, the tumor was weighted, and photographs were taken.
All experimental results were expressed as mean tumor volume±SEM (mean standard error). Statistical analysis between different groups was performed on the best point of drug treatment (usually after the last dosing). The independent sample T test method was used to evaluate whether there was significant difference between the relative tumor volume and tumor weight in the treatment group to that of the control group. All data was analyzed by SPSS 18.0. p<0.05 was considered having significant differences.

c-Met kinase = c-Met kinase (Homo sapiens, UniProt P08581); test: c-Met tyrosine kinase inhibition, HTRF kinase assay; details: ATP concentration at Km
Experimental: The in vitro kinase assay uses Homogeneous Time-Resolved Fluorescence (HTRF) technology to screen the test compounds on the c-Met kinase at an ATP concentration of Km (wherein, Km represents the Michaelis constant, the unit is mol/L, which is the concentration of ATP at which the enzymatic reaction rate is half of the maximum reaction rate).
All samples were formulated to a 10^−2M stock solution using DMSO and stored in small quantities at −80° C. for use.
1, Preparing a 1× reaction buffer (the reaction buffer purchased was high-concentration, dilution was required when used, diluted to the final concentration required for the experiment, which was referred to as 1× reaction buffer.)
preparing 1× reaction buffer suitable for each kinase using 5× Enzymatic buffer in HTRF kinEASE-TK kit.
2, Preparing and transferring 5× compound (e.g. the final concentration of compound required for the experiment was 1 μm, then the concentration of the sample was first formulated to 5 μm, referred to as 5× compound.) […]

[3] = 0.05 mg/kg intragastric once a day
[4] = 0.5 mg/kg intragastric once a day
[5] = 5 mg/kg intragastric once a day

Sequence of c-Met kinase (P08581 956-1390 limits assumed): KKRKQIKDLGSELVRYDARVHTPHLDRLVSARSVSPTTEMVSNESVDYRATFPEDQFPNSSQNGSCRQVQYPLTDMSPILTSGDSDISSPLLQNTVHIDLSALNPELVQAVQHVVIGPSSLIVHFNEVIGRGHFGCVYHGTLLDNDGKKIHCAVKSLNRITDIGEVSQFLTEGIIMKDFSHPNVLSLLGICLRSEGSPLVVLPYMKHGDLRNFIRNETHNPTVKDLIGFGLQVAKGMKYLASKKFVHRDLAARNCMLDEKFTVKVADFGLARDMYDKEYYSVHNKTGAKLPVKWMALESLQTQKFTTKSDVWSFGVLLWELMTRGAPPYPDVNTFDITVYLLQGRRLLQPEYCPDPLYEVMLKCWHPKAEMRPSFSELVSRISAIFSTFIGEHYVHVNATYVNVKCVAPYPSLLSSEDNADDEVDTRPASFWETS

Cn1cc(-c2cnc3ccc(Cn4nnc5ncc(-c6cnn(C)c6)nc54)cc3c2)cn1 [crystal form A of SPH1772 ditartrate]
weight change percentage of tumor-bearing mice ([1]; 0.3 mg/kg): −1.61% | weight change percentage of tumor-bearing mice ([1]; 3 mg/kg): −1.88% | weight change percentage of tumor-bearing mice ([1]; 30 mg/kg): −2.01% | AUCextra (in vivo): 210.83 µM·min | AUCtot (in vivo): 9012.96 µM·min | Clearance (in vivo): 2 mL/min/kg | Vz (in vivo): 0.760 L/kg | Cmax (in vivo; Cmax): 16 µM | MRT (in vivo; MRT): 7.89 h | Tmax (in vivo; Tmax): 3.33 h | relative tumor volume (x ± S) [2, 3]: 3.03 ± 0.56 | tumor volume (x ± S) [2, 3]: 469 mm^3 and 469 ± 85 mm^3 | T/C ([2]; 0.05 mg/kg): 26% | TGI (relative tumor inhibition rate) ([2]; 0.05 mg/kg): 74% | Tumor weight (x ± s) ([2]; 0.05 mg/kg): 493 ± 71 mg | TGI (tumor weight) ([2]; 0.05 mg/kg): 69% | relative tumor volume (x ± S) [2, 4]: 0.39 ± 0.03 | tumor volume (x ± S) [2, 4]: 60 mm^3 and 60 ± 5 mm^3 | T/C ([2]; 0.5 mg/kg): 3% | TGI (relative tumor inhibition rate) ([2]; 0.5 mg/kg): 97% | Tumor weight (x ± s) ([2]; 0.5 mg/kg): 48 ± 2 mg | TGI (tumor weight) ([2]; 0.5 mg/kg): 97% | relative tumor volume (x ± S) [2, 5]: 0.14 ± 0.02 | tumor volume (x ± S) [2, 5]: 22 mm^3 and 22 ± 3 mm^3 | T/C ([2]; 5 mg/kg): 1% | TGI (relative tumor inhibition rate) ([2]; 5 mg/kg): 99% | Tumor weight (x ± s) ([2]; 5 mg/kg): 31 ± 3 mg | TGI (tumor weight) ([2]; 5 mg/kg): 98% | IC50 (c-Met kinase): 0.33 nM
